For 23 molecules, IC50 and Drug uptake results are on record in ChEMBL document CHEMBL4052725, “Synthesis and biological evaluation of novel steroidal 5α,8α-epidioxyandrost-6-ene-3β-ol-17-(O-phenylacetamide)oxime derivatives as potential anticancer agents” (Bioorg Med Chem Lett, 2017).

One may read the IC50 as the concentration that inhibits the measured activity by half. Higher therefore signals a need for much substance.

For data set [1], the system named is HepG2. As to the kind of experiment: Antiproliferative activity against human HepG2 cells after 48 hrs by MTT assay. The data set is classed as functional, cell-based. The conditions noted are these: HepG2, 48 h. (In general: Formazan colour is commonly taken as a measure of viable cells.)
Data set [2] has as its system SK-HEP1. As to the kind of experiment: Antiproliferative activity against human SKHEP1 cells after 48 hrs by MTT assay. The data set is classed as functional, cell-based. The note with it: SK-HEP1, 48 h.
Data set [3] relates to MCF7. As to the kind of experiment: Antiproliferative activity against human MCF7 cells after 48 hrs by MTT assay. The data set is classed as functional, cell-based. The conditions noted are these: MCF7, 48 h.
Data set [4] concerns MDA-MB-231. As to the kind of experiment: Antiproliferative activity against human MDA-MB-231 cells after 48 hrs by MTT assay. It is filed as functional, cell-based. The conditions noted are these: MDA-MB-231, 48 h.
A short description of data set [5]: Drug localization in human HepG2 cells at 10 uM after 2 hrs by confocal laser scanning microscopic analysis. The data set is classed as ADME, cell-based. The note with it: hepg2, 2 h.
The nature of data set [6]: Drug localization in mitochondria of human HepG2 cells at 10 uM after 30 mins by Rh123 green dye-based confocal laser scanning microscopic analysis. It is filed as ADME. The note with it: 0.5 h.

On to `CC(C)c1ccc(NC(=O)CO/N=C2\CC[C@H]3C4=CC=C5C[C@@H](O)CC[C@]5(C)[C@H]4CC[C@]23C)cc1`, for which the IC50 in data set [1] was 26.7 µM; in data set [2], 23.2 µM; in data set [3] it was 31.6 µM; in data set [4], 35 µM.
With `C[C@]12CC[C@@H]3[C@]4(C=C[C@]5(C[C@@H](O)CC[C@]35C)OO4)[C@@H]1CC/C2=N\OCC(=O)Nc1cccc(F)c1`, the IC50 in data set [1] turned out to be 40.5 µM; in data set [2], 37.6 µM; in data set [3], 29.5 µM; in data set [4], 26.3 µM.
Taken in the same sequence, the figures for `C[C@]12CC[C@H](O)CC1=CC=C1[C@@H]2CC[C@]2(C)/C(=N/OCC(=O)Nc3ccccc3)CC[C@@H]12` were above 80 µM, 73.8 µM, above 80 µM and above 80 µM.
Regarding `Cc1cccc(NC(=O)CO/N=C2\CC[C@H]3[C@@]45C=C[C@]6(C[C@@H](O)CC[C@]6(C)[C@@H]4CC[C@]23C)OO5)c1`, the IC50 in data set [1] is 35.4 µM; in data set [2], 30.6 µM; in data set [3], 41.6 µM; in data set [4] it was 45.5 µM.
With `C[C@]12CC[C@@H]3[C@]4(C=C[C@]5(C[C@@H](O)CC[C@]35C)OO4)[C@@H]1CC/C2=N\OCC(=O)Nc1cccc(Cl)c1`, the IC50 in data set [1] stood at 15.4 µM; in data set [2], 22.8 µM; in data set [3] it was 34.4 µM; in data set [4], 29.5 µM.
On to `C[C@]12CC[C@H](O)CC1=CC=C1[C@@H]2CC[C@]2(C)/C(=N/OCC(=O)Nc3cccc(C(F)(F)F)c3)CC[C@@H]12`, for which the half-maximal inhibitory concentration (IC50) came out at 14.4 µM in data set [1], 16.5 µM in data set [2], 21.3 µM in data set [3] and 19.4 µM in data set [4].
In the case of `COc1ccc(NC(=O)CO/N=C2\CC[C@H]3[C@@]45C=C[C@]6(C[C@@H](O)CC[C@]6(C)[C@@H]4CC[C@]23C)OO5)cc1`, the concentration for half-maximal inhibition (IC50) in data set [1] came out at 49.5 µM; in data set [2], 41.4 µM; in data set [3], 52.2 µM; in data set [4], 46.4 µM.
The corresponding values for `C[C@]12CC[C@@H]3[C@]4(C=C[C@]5(C[C@@H](O)CC[C@]35C)OO4)[C@@H]1CC/C2=N\OCC(=O)Nc1ccc(Cl)cc1` are 14.8 µM, 11.1 µM, 19.5 µM and 14.2 µM.
For the molecule `C#Cc1cccc(NC(=O)CO/N=C2\CC[C@H]3[C@@]45C=C[C@]6(C[C@@H](O)CC[C@]6(C)[C@@H]4CC[C@]23C)OO5)c1`, the IC50 in data set [1] is 44.2 µM; in data set [2] it was 38.2 µM; in data set [3], 31.6 µM; in data set [4], 25.1 µM.
The corresponding values for `Cc1ccc(NC(=O)CO/N=C2\CC[C@H]3[C@@]45C=C[C@]6(C[C@@H](O)CC[C@]6(C)[C@@H]4CC[C@]23C)OO5)cc1Cl` are 9.3 µM, 12.1 µM, 22.7 µM and 17.5 µM.
Taken in the same sequence, the figures for `Cc1ccc(NC(=O)CO/N=C2\CC[C@H]3C4=CC=C5C[C@@H](O)CC[C@]5(C)[C@H]4CC[C@]23C)cc1Cl` were 17.8 µM, 19.8 µM, 34.3 µM and 29.2 µM.
As for `CCN(CC)c1ccc2cc(C(=O)NCC(=O)OC3CC[C@]4(C)[C@@H]5CC[C@]6(C)/C(=N/OCC(=O)Nc7ccc(C(C)C)cc7)CC[C@H]6[C@@]56C=C[C@]4(C3)OO6)c(=O)oc2c1` (some centres undefined), the IC50 in data set [1] was 8.4 µM; in data set [2] it was 7.52 µM; in data set [3], 9.64 µM; in data set [4], 7.22 µM. The Drug uptake result in data set [5] and in data set [6] was “Active” in each case.
With `C[C@]12CC[C@@H]3[C@]4(C=C[C@]5(C[C@@H](O)CC[C@]35C)OO4)[C@@H]1CC/C2=N\OCC(=O)Nc1ccc(F)cc1`, the IC50 was 15.8 µM in data set [1], 10.7 µM in data set [2], 14.5 µM in data set [3] and 12.7 µM in data set [4].
Taken in the same sequence, the figures for `COc1cccc(NC(=O)CO/N=C2\CC[C@H]3C4=CC=C5C[C@@H](O)CC[C@]5(C)[C@H]4CC[C@]23C)c1` were 70.6 µM, above 80 µM, above 80 µM and 59.3 µM.
Regarding `C[C@]12CC[C@@H]3[C@]4(C=C[C@]5(C[C@@H](O)CC[C@]35C)OO4)[C@@H]1CC/C2=N\OCC(=O)Nc1cccc(C(F)(F)F)c1`, the half-maximal inhibitory concentration (IC50) in data set [1] came out at 13.5 µM; in data set [2] it was 15.6 µM; in data set [3] it was 23.1 µM; in data set [4], 20.4 µM.
The corresponding values for `C[C@]12CC[C@@H]3[C@]4(C=C[C@]5(C[C@@H](O)CC[C@]35C)OO4)[C@@H]1CC/C2=N\OCC(=O)Nc1ccccc1` are 48.3 µM, 60.4 µM, above 80 µM and 74.2 µM.
The corresponding values for `Cc1ccc(NC(=O)CO/N=C2\CC[C@H]3[C@@]45C=C[C@]6(C[C@@H](O)CC[C@]6(C)[C@@H]4CC[C@]23C)OO5)cc1` are 38.3 µM, 46.3 µM, 62.2 µM and above 80 µM.
In the case of `CC(C)[C@@H](C)/C=C/[C@@H](C)[C@H]1CC[C@@H]2[C@]1(C)CC[C@@H]1[C@]23C=C[C@]2(C[C@@H](O)CC[C@]12C)OO3`, the IC50 was found to be 15.8 µM in data set [1], 17.2 µM in data set [2], 23.3 µM in data set [3] and 19.2 µM in data set [4].
Turning to `C[C@]12CC[C@@H]3[C@]4(C=C[C@]5(C[C@@H](O)CC[C@]35C)OO4)[C@@H]1CC/C2=N\OCC(=O)Nc1ccc(Br)cc1`, the IC50 in data set [1] came to 29.9 µM; in data set [2], 24.4 µM; in data set [3], 40.3 µM; in data set [4] it was 37.5 µM.
Taken in the same sequence, the figures for `C[C@]12CC[C@H](O)CC1=CC=C1[C@@H]2CC[C@]2(C)/C(=N/OCC(=O)Nc3cccc(Cl)c3)CC[C@@H]12` were 22.7 µM, 26.6 µM, 42.1 µM and 33.5 µM.
Regarding `COc1cccc(NC(=O)CO/N=C2\CC[C@H]3[C@@]45C=C[C@]6(C[C@@H](O)CC[C@]6(C)[C@@H]4CC[C@]23C)OO5)c1`, the 50% inhibitory concentration (IC50) in data set [1] worked out at 44.9 µM; in data set [2] it was 50.2 µM; in data set [3], 43.2 µM; in data set [4] it was 57.3 µM.
Turning to `CC(C)c1ccc(NC(=O)CO/N=C2\CC[C@H]3[C@@]45C=C[C@]6(C[C@@H](O)CC[C@]6(C)[C@@H]4CC[C@]23C)OO5)cc1`, the half-maximal inhibitory concentration (IC50) in data set [1] is 12.1 µM; in data set [2] it was 14.6 µM; in data set [3], 20.4 µM; in data set [4], 15.8 µM.
With `C[C@]12CC[C@@H]3[C@]4(C=C[C@]5(C[C@@H](O)CC[C@]35C)OO4)[C@@H]1CC/C2=N\OCC(=O)Nc1ccc(F)c(Cl)c1`, the IC50 in data set [1] was determined as 11.3 µM; in data set [2] it was 14.3 µM; in data set [3], 26.2 µM; in data set [4] it was 24.6 µM.
